We go through 41 molecules from patent US20010034342A1, “Substituted urea and isothiourea derivatives as no synthase inhibitors” (priority 1993, published 2001).

Common to all, as to assay type: biochemical
Test [1] addresses T1, inducible human NOS (Homo sapiens, UniProt P35228).
T1 construct: Purification of NOS cytokine-induced human colorectal adenocarcinoma DLD-1 cells; endogenous in cells; host or cells: DLD-1 (ATCC No. CCL 221), induced with IFN-gamma, IL-6, TNF and IL-1beta
Put plainly: Assay for inducible human NOS (citrulline formation), enzyme from cytokine-induced DLD-1 cells. Particulars: for inhibition at 25 µM: @ 25 μM inhibitor, read-out: Human Inducible, percent (inhibition) @ 25 μM.
Method: (§1) NOS was assayed for the formation of citrulline following the procedure of Schmidt et al (PNAS 88 365-369, 1991) with these modifications: 20 mM Hepes, pH 7.4, 10 μg/ml calmodulin, 2.5 mM CaCl2 2.5 mM DTT, 125 μM NADPH 10 μM H4 Biopterin, 0.5 mg/ml BSA, and 1 μM L-[14C] arginine (New England Nuclear). Linearity of NOS-catalyzed rate was confirmed prior to kinetic studies that used single tine point determination of rate.
DLD-1 (ATCC No. CCL 221) were grown at 37° C., 5% CO2 in RPMI 1640 medium supplemented with L-glutamin, penicillin, streptomycin, and 10% heat-inactivated fetal bovine serum. Cells were grown to confluency and then the following cocktail of cytokines were added: 100 units/ml interferon-gamma, 200 units/ml interleukin-6, 10 ng/ml tumor necrosis factor, and 0.5 ng/mil interleukin-1β. At 10-24 hr post-induction, cells were harvested by scraping and washed with phosphate-buffered saline. Pelleted cells were stored at −70° C. Purification of the induced NOS was performed at 4° C. Crude extract was prepared by three cycles of freeze/thawing cells in TDGB (20 mM tris pH 7.5, 10% glycerol, 1 mM DTT, 2 μM tetrahydrobiopterin). Extract was applied directly onto a column of 2′,5′ ADP sepharse (Pharmacia). Resin was sequentially washed with TDGB, 0.5 M NaCl in TDGB, TDGB. NOS was eluted with 2 mM NADPH in TDGB. BSA was immediately added to give a final concentration of 1 mg/ml. NOS could be quick frozen and stored at −70° C. without loss in activity for at least 2 months.
Assay for inducible human NOS.
The formation of citrulline was assayed as described above except that 10 μM FAD was included and calmodulin and CaCl2 were excluded from the assay mix.

The target of test [2] is T2, human placental NOS (Homo sapiens, UniProt P29474).
T2 construct: Purification of NOS from human placenta; from tissue; host or cells: fresh human placenta
Put plainly: Assay for human placental NOS (citrulline formation). Particulars: for inhibition at 25 µM: @ 25 μM inhibitor, read-out: Human Placental, percent (inhibition) @ 25 μM.
Method: as §1

For test [3], the target named is T3, Human brain NOS (Homo sapiens, UniProt P29475).
T3 construct: Purification of NOS from human brain; from tissue; host or cells: frozen human brain
Put plainly: Human brain NOS enzyme activity assay. Particulars: for Ki: isolated enzyme from human brain.
Method: The mixture was centrifuged at 13,000 g for 1 hour and the supernatant was removed (about 2050 ml). […] The precipitate was pelleted at 13,000 g for 30 minutes and the pellet was resuspended in −400 mls of buffer A with 4 μM tetrahydrobiopterin, 1 μm FAD (Sigma), 1 μM FMN (Sigma). The solution was centrifuged at 41,000 g for 60 minutes. The supernatant was removed, frozen by pouring into liquid nitrogen, and stored overnight at −70° C. The mixture was thawed and passed through a 2′,5′ ADP-agarose column (0.4 g swelled in buffer A) at 4 ml/min. The column was washed with 100 ml buffer A, 200 ml buffer A with 500 mM NaCl, 100 ml Buffer A, then 30 ml buffer A with 5 mM NADPH. […] To the enzyme was added tetrahydrobiopterin to 10 μM, FAD and FMN to 1 μM, and tween to 0.1%. This solution was concentrated by centriprep-30 to a volume of approximately 500 μl. Human NOS was prepared completely analogously except the calmodulin-agarose column was not used.

Where [4] appears, read: from percent inhibition at three or more concentrations at a single time point, assuming competitive inhibition with respect to arginine, read-out: Human Inducible Ki/μM (footnote b).
[5] abbreviates: isolated enzyme from DLD-1 cells, read-out: Human Inducible Ki/μM.
[6] abbreviates: isolated enzyme from human placenta, read-out: Human Placental Ki/μM.

Counter-ions that a name gives are not always drawn. Like-named read-outs stand apart in the source and are kept apart here.

T3 sequence (P29475 whole entry): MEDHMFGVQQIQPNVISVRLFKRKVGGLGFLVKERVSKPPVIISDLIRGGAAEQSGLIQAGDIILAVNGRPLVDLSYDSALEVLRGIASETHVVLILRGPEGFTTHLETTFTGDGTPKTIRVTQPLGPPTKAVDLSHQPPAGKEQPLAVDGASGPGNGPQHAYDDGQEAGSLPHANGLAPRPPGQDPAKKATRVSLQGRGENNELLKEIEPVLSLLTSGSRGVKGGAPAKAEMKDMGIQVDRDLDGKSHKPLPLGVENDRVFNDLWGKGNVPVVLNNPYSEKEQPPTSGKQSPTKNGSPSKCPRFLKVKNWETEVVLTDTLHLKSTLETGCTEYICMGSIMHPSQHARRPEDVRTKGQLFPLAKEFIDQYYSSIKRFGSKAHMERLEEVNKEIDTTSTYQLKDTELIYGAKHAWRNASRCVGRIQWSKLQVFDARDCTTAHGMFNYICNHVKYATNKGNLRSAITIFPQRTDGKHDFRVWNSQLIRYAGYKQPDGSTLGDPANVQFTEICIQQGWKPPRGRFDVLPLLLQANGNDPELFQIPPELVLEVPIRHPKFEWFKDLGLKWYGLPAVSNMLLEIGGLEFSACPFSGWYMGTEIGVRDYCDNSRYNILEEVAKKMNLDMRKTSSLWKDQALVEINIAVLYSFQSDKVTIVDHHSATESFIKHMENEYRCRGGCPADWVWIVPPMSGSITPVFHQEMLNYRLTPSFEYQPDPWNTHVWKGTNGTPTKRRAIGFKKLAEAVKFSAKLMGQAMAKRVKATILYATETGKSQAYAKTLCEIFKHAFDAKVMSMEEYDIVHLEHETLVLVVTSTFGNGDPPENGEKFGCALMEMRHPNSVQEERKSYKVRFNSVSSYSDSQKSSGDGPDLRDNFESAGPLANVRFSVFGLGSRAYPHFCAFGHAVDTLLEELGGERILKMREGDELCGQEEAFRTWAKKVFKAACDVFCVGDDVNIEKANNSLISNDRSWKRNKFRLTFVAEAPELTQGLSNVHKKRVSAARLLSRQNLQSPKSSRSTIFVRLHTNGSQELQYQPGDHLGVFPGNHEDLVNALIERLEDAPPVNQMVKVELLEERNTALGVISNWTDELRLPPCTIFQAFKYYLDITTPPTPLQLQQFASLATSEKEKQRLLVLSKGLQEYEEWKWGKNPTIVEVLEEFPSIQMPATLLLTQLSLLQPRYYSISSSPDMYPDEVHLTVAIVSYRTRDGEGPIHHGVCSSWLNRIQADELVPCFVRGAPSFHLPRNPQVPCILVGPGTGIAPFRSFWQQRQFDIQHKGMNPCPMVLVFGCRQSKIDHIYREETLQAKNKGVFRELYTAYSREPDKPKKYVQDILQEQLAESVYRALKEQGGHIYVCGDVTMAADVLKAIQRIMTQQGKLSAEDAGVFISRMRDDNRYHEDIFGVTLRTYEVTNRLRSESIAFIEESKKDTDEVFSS
T2 sequence (P29474 2-1203): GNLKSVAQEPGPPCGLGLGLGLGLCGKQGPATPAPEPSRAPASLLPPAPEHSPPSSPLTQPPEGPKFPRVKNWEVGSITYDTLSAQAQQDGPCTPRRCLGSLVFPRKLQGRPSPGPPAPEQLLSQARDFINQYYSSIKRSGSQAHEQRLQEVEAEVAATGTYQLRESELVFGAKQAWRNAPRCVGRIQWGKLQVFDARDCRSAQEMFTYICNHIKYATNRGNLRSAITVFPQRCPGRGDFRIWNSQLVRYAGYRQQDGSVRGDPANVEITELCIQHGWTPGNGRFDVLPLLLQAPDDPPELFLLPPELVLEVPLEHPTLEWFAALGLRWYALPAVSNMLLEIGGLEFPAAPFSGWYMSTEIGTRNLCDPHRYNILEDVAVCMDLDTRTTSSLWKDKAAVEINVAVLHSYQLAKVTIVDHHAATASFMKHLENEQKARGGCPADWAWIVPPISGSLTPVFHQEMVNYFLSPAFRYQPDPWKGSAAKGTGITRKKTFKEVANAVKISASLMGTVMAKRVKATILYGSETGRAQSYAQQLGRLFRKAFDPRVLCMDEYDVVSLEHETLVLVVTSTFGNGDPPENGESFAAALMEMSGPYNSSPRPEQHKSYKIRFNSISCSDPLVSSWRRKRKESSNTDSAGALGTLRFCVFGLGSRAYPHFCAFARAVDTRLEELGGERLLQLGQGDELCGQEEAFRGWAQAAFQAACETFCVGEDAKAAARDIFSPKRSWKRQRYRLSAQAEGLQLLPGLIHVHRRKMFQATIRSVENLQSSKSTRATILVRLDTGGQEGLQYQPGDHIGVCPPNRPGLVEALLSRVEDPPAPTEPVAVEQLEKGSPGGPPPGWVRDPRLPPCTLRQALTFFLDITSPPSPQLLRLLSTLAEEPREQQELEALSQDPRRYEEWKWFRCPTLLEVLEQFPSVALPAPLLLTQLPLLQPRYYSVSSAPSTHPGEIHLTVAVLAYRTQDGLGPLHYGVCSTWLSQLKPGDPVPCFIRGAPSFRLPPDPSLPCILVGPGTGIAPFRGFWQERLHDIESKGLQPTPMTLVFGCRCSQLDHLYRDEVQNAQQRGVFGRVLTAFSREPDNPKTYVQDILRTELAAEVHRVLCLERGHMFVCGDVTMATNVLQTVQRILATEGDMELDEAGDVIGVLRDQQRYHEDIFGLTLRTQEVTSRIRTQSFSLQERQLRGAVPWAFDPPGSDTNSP
T1 sequence (P35228 whole entry): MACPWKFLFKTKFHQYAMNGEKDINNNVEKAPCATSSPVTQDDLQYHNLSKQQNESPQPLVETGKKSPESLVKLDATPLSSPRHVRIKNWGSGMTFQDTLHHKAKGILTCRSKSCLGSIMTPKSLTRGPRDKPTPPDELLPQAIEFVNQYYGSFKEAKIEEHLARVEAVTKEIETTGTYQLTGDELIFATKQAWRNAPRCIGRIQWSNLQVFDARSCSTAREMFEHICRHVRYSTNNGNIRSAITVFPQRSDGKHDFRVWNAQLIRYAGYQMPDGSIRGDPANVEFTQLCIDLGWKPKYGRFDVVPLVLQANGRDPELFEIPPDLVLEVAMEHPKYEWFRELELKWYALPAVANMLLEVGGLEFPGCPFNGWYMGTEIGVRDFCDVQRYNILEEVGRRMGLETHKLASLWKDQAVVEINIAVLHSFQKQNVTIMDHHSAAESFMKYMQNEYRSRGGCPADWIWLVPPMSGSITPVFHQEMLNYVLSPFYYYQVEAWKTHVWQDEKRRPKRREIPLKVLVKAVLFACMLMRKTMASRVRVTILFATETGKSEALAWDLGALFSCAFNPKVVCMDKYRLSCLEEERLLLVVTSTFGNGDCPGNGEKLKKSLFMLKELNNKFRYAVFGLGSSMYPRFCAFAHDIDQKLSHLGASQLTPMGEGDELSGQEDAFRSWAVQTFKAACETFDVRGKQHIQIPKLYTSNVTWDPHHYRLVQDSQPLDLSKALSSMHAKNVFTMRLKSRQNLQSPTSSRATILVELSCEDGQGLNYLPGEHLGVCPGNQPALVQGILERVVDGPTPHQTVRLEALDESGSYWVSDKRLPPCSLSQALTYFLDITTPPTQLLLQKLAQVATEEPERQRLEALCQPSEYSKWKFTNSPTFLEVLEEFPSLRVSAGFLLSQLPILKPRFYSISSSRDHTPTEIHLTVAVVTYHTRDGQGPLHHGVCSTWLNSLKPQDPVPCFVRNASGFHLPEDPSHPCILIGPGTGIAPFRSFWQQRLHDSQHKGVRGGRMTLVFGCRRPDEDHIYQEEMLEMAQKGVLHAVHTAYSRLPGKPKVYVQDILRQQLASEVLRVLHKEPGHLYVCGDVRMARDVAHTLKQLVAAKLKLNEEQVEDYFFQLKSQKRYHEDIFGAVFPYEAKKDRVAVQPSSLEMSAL

Regarding “N^5-(iminomethoxymethyl)-L-ornithine dihydrochloride [10^c(i)]”, the Ki is 0.22 µM in test [1] (setting [4]) and 0.12 µM in test [2] (from percent inhibition at three or more concentrations at a single time point, assuming competitive inhibition with respect to arginine, read-out: Human Placental Ki/μM (footnote b)).
As to `CCSC(=N)Nc1ccc(OC)cc1` [Example 1J, S-ethyl-N-(4-methoxyphenyl)isothiourea], the Ki in test [1] (setting [5]) is 4.9 µM; in test [2] (setting [6]) it was 2.7 µM; in test [3] it was 0.29 ± 0.04 µM.
For `CCSC(=N)Nc1cccc(OC)c1` [Example 1A, S-ethyl-N-(3-methoxyphenyl)isothiourea], in that order: 3.2 µM, 3.1 µM and 0.56 ± 0.02 µM.
For `CCSC(=N)Nc1ccc(OCc2ccccc2)cc1` [Example 1B, S-ethyl-N-[4-(benzyloxy)phenyl]isothiourea], in that order: 6.6 µM, 2.8 µM and 0.21 ± 0.01 µM.
For `CSC(=N)NCc1ccc(CNC(=N)SC)cc1` [Example 7, N,N-((methylthio)iminomethyl)-p-xylylenediamine], in that order: 45 µM, 22 µM and 3.2 µM.
On to `CCSC(=N)Nc1ccc(C)cc1` [Example 2I, S-Ethyl-N-(4-methylphenyl)isothiourea], for which the Ki was 1.9 µM in test [1] (setting [5]), 1 µM in test [2] (setting [6]) and 0.18 ± 0.04 µM in test [3].
As for “N^5-(ethoxyiminomethyl)-L-ornithine dihydrochloride [10^c(ii)]”, the Ki in test [1] (setting [4]) turned out to be 0.1 µM; in test [2] (from steady state inhibited rate / control rate, assuming competitive inhibition with respect to arginine, read-out: Human Placental Ki/μM (footnote a)), 0.006 µM.
Turning to `N[C@@H](CCCNC1=NCCS1)C(=O)O` [Example 5, N^5-(2-thiazolin-2-yl)-L-ornithine], the Ki in test [1] (setting [5]) is 3.3 µM; in test [2] (setting [6]) it was 5.5 µM.
Regarding `CCSC(=N)Nc1ccccc1C(F)(F)F` [Example 2F, S-Ethyl-N-[2-(trifluoromethyl)phenyl]isothiourea], the results for the Ki in test [1] (setting [5]), in test [2] (setting [6]) and in test [3] were 22 µM, 1.8 µM and 1.4 ± 0.01 µM, respectively.
For `CCSC(=N)NCc1ccc(CN)cc1` [Example 14A, 1-(4-(Aminomethyl)benzyl)-S-ethylisoiourea], in that order: 5.3 µM, 14 µM and 5.5 µM.
Consider `CCSC(=N)Nc1cccnc1` [Example 2J, S-Ethyl-N-(3-pyridyl)isothiourea], for which the inhibition at 25 µM in test [1] turned out to be 47%. Moreover, the Ki turned out to be 6.9 µM in test [2] (setting [6]) and 1 µM in test [3].
With `CSC(=N)NCc1cccc(CN)c1` [Example 13, 1-(3-(Aminomethyl)benzyl)-S-methylisothiourea], the Ki came out at 0.69 µM in test [1] (setting [5]), 3.3 µM in test [2] (setting [6]) and 3 µM in test [3].
With `CCSC(=N)Nc1ccc(N(C)C)cc1` [Example 1G, S-ethyl-N-(4-dimethylaminophenyl)isothiourea], the Ki in test [1] (setting [5]) is 29 µM; in test [2] (setting [6]) it was 9 µM; in test [3] it was 1.4 ± 0.01 µM.
In the case of `CCOC(=N)NCc1cccc(CN)c1` [Example 12, 1-(3-(Aminomethyl)benzyl)-O-ethylisourea], the Ki is 1.7 µM in test [1] (setting [5]), 4.1 µM in test [2] (setting [6]) and 0.09 µM in test [3].
For `CC(C)CSC(=N)NCCCC[C@H](N)C(=O)O` [Example 9F, N^6-(imino(2-methylpropylthio)methyl)-L-lysine], the Ki in test [2] (setting [6]) turned out to be 79 µM; in test [3], 61 µM.
For the molecule `CCSC(=N)Nc1ccc(Oc2ccccc2)cc1` [Example 1, S-Ethyl-N-(4-phenoxyphenyl)isothiourea], the Ki in test [1] (setting [5]) was found to be 3.1 µM; in test [2] (setting [6]) it was 4 µM; in test [3], 0.19 ± 0.01 µM.
On to `N[C@@H](CCCCNC1=NCCS1)C(=O)O` [Example 5A, N^6-(2-thiazolin-2-yl)-L-lysine], for which the Ki in test [1] (setting [5]) is 11 µM; in test [2] (setting [6]) it was 21 µM.
Consider `CCSC(=N)Nc1ccc(C(F)(F)F)cc1` [Example 2, S-ethyl-N-[4-(trifluoromethyl)phenyl]isothiourea hydrochloride], for which the inhibition at 25 µM in test [1] is 36%. In addition, the figures for the Ki in test [2] (setting [6]) and in test [3] were 9.4 µM and 0.32 ± 0.02 µM, respectively.
Turning to “N^6-(ethylthio)iminomethyl-D-lysine [Example 9J]”, the values for the Ki in test [1] (setting [5]), in test [2] (setting [6]) and in test [3] were 7 µM, 1.3 µM and 0.56 µM, respectively.
For `CC(C)SC(=N)NCCC[C@@H](N)C(=O)O` [Example 9K] the same measures were 40 µM, 30 µM and 61 µM.
For `CCSC(=N)Nc1ccc(Cl)c(C(F)(F)F)c1` [Example 2K, S-Ethyl-N-(4-chloro-3-(trifluoromethyl)phenyl)isothiourea] the same measures were 17 µM, 8.2 µM and 4.2 µM.
For `CSC(=N)NCc1cccc(CNC(=N)SC)c1` [Example 6, N, N′-((methylthio)iminomethyl)-m-xylylenediamine] the same measures were 2.3 µM, 17 µM and 0.5 µM.
For the molecule `CCSC(=N)Nc1ccncc1` [Example 2M, S-Ethyl-N-(4-pyridyl)isothiourea], the Ki in test [1] (setting [5]) came to 23 µM; in test [2] (setting [6]), 6.9 µM; in test [3] it was 1 ± 0.2 µM.
As for `CCSC(=N)Nc1cc(C(F)(F)F)ccc1Cl` [Example 2L, S-Ethyl-N-(2-chloro-5-(trifluoromethyl)phenyl)isothiourea], the “Human Inducible, percent (inhibition), concentration not given” value in test [1] worked out at 20%. In addition, the “Human Placental, percent (inhibition), concentration not given” value in test [2] is given as 6%. Also, the “Human Brain, percent (inhibition), concentration not given” value in test [3] (concentration not given) came out at 40%.
On to `CCOC(=N)Nc1ccc(C(F)(F)F)cc1` [Example 3A, O-Ethyl-N-(4-(trifluoromethyl)phenyl)isourea], for which the “Human Inducible, percent (inhibition), concentration not given” value in test [1] stood at 12%. For the same molecule, the “Human Placental, percent (inhibition), concentration not given” value in test [2] is recorded as 35%. In test [3], this molecule returned a Ki of 1.9 ± 0.1 µM.
Regarding `CCSC(=N)Nc1cccc(C(F)(F)F)c1` [Example 2E, S-Ethyl-N-[3-(trifluoromethyl)phenyl]isothiourea], the Ki in test [1] (setting [5]) was determined as 3.2 µM; in test [2] (setting [6]), 28 µM; in test [3] it was 1.1 ± 0.01 µM.
Regarding `CCSC(=N)Nc1ccccc1OC` [Example 2H, S-Ethyl-N-(2-methoxyphenyl)isothiourea], the Ki in test [1] (setting [5]) was 1.4 µM; in test [2] (setting [6]), 1.6 µM; in test [3], 0.17 ± 0.02 µM.
Consider `CCSC(=N)Nc1cccc(C(=O)O)c1` [Example 1E, S-ethyl-N-(3-carboxyphenyl)isothiourea], for which the Ki came to 44 µM in test [1] (setting [5]) and 14 µM in test [2] (setting [6]).
In the case of `CCSC(=N)Nc1ccc(C(=O)O)cc1` [Example 1D, S-ethyl-N-(4-carboxyphenyl)isothiourea], the “Human Inducible, percent (inhibition), concentration not given” value in test [1] is 0%. The inhibition at 25 µM came out at 14% in test [2] and 30% in test [3] (@ 25 μM inhibitor, read-out: Human Brain, percent (inhibition) @ 25 μM).
On to `CSC(=N)NCc1ccc(CN)cc1` [Example 14, 1-(4-(Aminomethyl)benzyl)-S-methylisothiourea], for which the Ki in test [1] (setting [5]) came out at 22.6 µM; in test [2] (setting [6]) it was 23.2 µM; in test [3], 28 µM.
As for `CCSC(=N)Nc1ccc(O)cc1` [Example 1I, S-ethyl-N-(4-hydroxyphenyl)isothiourea], the Ki in test [1] (setting [5]) is 2.5 µM; in test [2] (setting [6]), 2.7 µM; in test [3] it was 0.34 µM.
With “N^6-((methylpropylthio)iminomethyl-D-lysine [Example 9N]”, the Ki in test [2] (setting [6]) was 99 µM; in test [3], 61 µM.
With `CCSC(=N)Nc1ccccn1` [Example 1K, S-ethyl-N-(2-pyridyl)isothiourea], the inhibition at 25 µM in test [1] and in test [2] was 48% in each case. Further, in test [3], the Ki came to 4.8 µM.
On to `CCSC(=N)Nc1cccc(Cl)c1` [Example 2B, S-Ethyl-N-(3-chlorophenyl)isothiourea], for which the Ki in test [1] (setting [5]) turned out to be 2.4 µM; in test [2] (setting [6]), 1.8 µM; in test [3], 0.45 µM.
As to `CCOC(=O)c1ccc(NC(=N)SCC)cc1` [Example 1C, S-ethyl-N-[4-(ethoxycarbonyl)phenyl]isothiourea], the figures for the Ki in test [1] (setting [5]), in test [2] (setting [6]) and in test [3] were over 25 µM, 12 µM and 1.6 µM, respectively.
For “N^6-((methylthio)iminomethyl)-D-lysine [Example 9H]”, in that order: 5.3 µM, 1.2 µM and 0.4 µM.
Turning to `CCSC(=N)Nc1ccccc1C(C)C` [Example 2C, S-Ethyl-N-(2-isopropylphenyl)isothiourea], the Ki turned out to be 10 µM in test [1] (setting [5]), 6.5 µM in test [2] (setting [6]) and 1.13 ± 0.02 µM in test [3].
For `CCSC(=N)Nc1ccccc1Br` [Example 1F, S-ethyl-N-(2-bromophenyl)isothiourea], in that order: 4.7 µM, 2 µM and 0.25 ± 0.02 µM.
For the molecule `CCSC(=N)Nc1ccc(C(C)C)cc1` [Example 2D, S-Ethyl-N-(4-isopropylphenyl)isothiourea], the values for the Ki in test [2] (setting [6]) and in test [3] were 7.7 µM and 0.33 µM, respectively.
With `CC(C)CSC(=N)NCCC[C@H](N)C(=O)O` [Example 9E, N^5-(imino(2-methylpropylthio)methyl)-L-ornithine], the Ki in test [1] (setting [5]) worked out at 5.3 µM; in test [2] (setting [6]), 14 µM; in test [3], 5.5 µM.
`CC(C)CSC(=N)NCCC[C@@H](N)C(=O)O` [Example 9M, N^5-((2-methylpropylthio)iminethyl)-D-ornithine]: the results for the Ki in test [1] (setting [5]) and in test [3] were 13 µM and 19.5 µM, respectively.
